Where a name gives a salt, the structure may show the parent alone.
Tests used:
GSK3β = GSK3β (Homo sapiens, UniProt P49841); assay: Inhibitory activity against GSK3β (33P-ATP phosphorylation of prephosphorylated GS1 peptide, two protocols); type: biochemical
Protocol: Inhibitory Activity of the Medicament of the Present Invention Against GSK3β Two different protocols can be used. In a first protocol: 7.5 μM of prephosphorylated GS1 peptide and 10 μM ATP (containing 300,000 cpm of ^33P-ATP) were incubated in 25 mM Tris-HCl, pH 7.5, 0.6 mM DTT, 6 mM MgCl2, 0.6 mM EGTA, 0.05 mg/ml BSA buffer for 1 hour at room temperature in the presence of GSK3beta (total reaction volume: 100 microliters). In a second protocol: 4.1 μM of prephosphorylated GS 1 peptide and 42 μM ATP (containing 260,000 cpm ^33P-ATP) were incubated in 80 mM Mes-NaOH, pH 6.5, 1 mM Mg acetate, 0.5 mM EGTA, 5 mM 2-mercaptoethanol, 0.02% Tween 20, 10% glycerol buffer for 2 hours at room temperature in the presence of GSK3beta. Inhibitors were solubilised in DMSO (final solvent concentration in the reaction medium, 1%). The reaction was stopped with 100 microliters of a solution made of 25 g polyphosphoric acid (85% P2O5), 126 ml 85% H3PO4, H2O to 500 ml and then diluted to 1:100 before use. An aliquot of the reaction mixture was then transferred to Whatman P81 cation exchange filters and rinsed with the solution described above. Incorporated 33P radioactivity was determined by liquid scintillation spectrometry. The phosphorylated GS-1 peptide had the following sequence: • NH2-[…](P)EDEE-COOH.

Chain of GSK3β (P49841 whole entry, species assumed): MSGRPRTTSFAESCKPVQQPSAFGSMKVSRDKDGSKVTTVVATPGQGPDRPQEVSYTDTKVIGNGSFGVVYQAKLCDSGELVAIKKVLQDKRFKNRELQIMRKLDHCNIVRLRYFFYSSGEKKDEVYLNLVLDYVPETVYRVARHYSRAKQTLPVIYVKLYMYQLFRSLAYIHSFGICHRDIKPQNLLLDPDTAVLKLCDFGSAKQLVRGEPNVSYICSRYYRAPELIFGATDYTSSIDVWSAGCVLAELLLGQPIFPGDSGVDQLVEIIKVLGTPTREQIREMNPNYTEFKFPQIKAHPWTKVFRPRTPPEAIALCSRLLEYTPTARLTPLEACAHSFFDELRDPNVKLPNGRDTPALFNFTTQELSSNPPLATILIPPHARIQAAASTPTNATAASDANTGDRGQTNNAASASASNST

Row | IC50 (GSK3β) | melting point | SMILES
1 | 6 nM | 142 to 144 °C | Cn1c(N2CC3C[C@H]2CN3C(=O)c2ccc(Br)cc2)nc(-c2ccncn2)cc1=O [Compound 24, (1S)-2-(5-(4-Bromo-benzoyl)-2,5-diaza-bicyclo[2.2.1]hept-2-yl)-1-methyl-1H-[4,4′]bipyrimidinyl-6-one]
2 | – | 275 to 277 °C | Cn1c(N2CC3C[C@H]2CN3)nc(-c2ccncn2)cc1=O (as salt: hydrochloride)
3 | – | 240 to 242 °C | Cn1c(N2CC3C[C@H]2CN3)nc(-c2ccncc2)cc1=O (as salt: hydrochloride)
4 | 4 nM | 123 to 125 °C | Cc1ccc(N2C[C@@H]3CC2CN3c2nc(-c3ccncc3)cc(=O)n2C)cc1 [4′, (1S)-3-Methyl-6-pyridin-4-yl-2-(5-p-tolyl-2,5-diaza-bicyclo[2.2.1]hept-2-yl)-3H-pyrimidin-4-one]

Source: patent US7211581B2, “Substituted 2-(diaza-bicyclo-alkyl)-pyrimidone derivatives” (Sanofi-Aventis, priority 2003, dated 2007)
